Drawing on patent US7161016B1, “Cannabimimetic lipid amides as useful medications” (University of Connecticut, priority 1998, dated 2007), this text covers Ki for 11 molecules.

pKi: −log10 of the molar value. Read-outs that look alike come from different tables or passages of the source.

Assay [1] deals with T1, CB1 cannabinoid receptor (Rattus norvegicus, UniProt P20272).
T1 construct: membranes were prepared from rat forebrain membranes; from tissue; host or cells: rat forebrain membranes
Description: CB1 receptor binding assay ([3H]CP-55,940 displacement), with and without PMSF. The settings on record: rat forebrain membranes. Here is the method: It is known that the enzymatic action of anandamide amidase can be moderated or prevented in vitro by the inclusion of phenylmethanesulfonyl fluoride (PMSF). PMSF functions as a nonselective protease inhibitor. Thus the ligand binding determinations for the CB1 receptor were carried out in the presence and absence of PMSF, to obtain both CB1 receptor binding affinity and a relative measure of the analog's metabolic stability. The binding affinities (Ki) are expressed in nanomoles (nM).
For the CB1 receptor binding studies, membranes were prepared from rat forebrain membranes according to the procedure of P. R. Dodd et al, A Rapid Method for Preparing Synaptosomes: Comparison with Alternative Procedures, Brain Res., 107–118 (1981). The binding of the novel analogues to the CB1 cannabinoid receptor was assessed as described in W. A. Devane et al, Determination and Characterization of a Cannabinoid Receptor in a Rat Brain, Mol. Pharmacol., 34, 605–613 (1988) and A. Charalambous et al, 5′-azido Δ^8-THC: A Novel Photoaffinity Label for the Cannabinoid Receptor, J. Med. Chem., 35, 3076–3079 (1992) with the following changes. The above articles are incorporated by reference herein.
Membranes, previously frozen at −80° C., were thawed on ice. To the stirred suspension was added three volumes of 25 mM Tris-HCl buffer, 5 mM MgCl2 and 1 mM EDTA, pH 7.4 (TME) containing 150 μM PMSF (made fresh in 2-propanol as a 100 mM stock). The suspension was incubated at 4° C., and after 15 min a second addition of PMSF stock brought the concentration to 300 μM PMSF; then the mixture was incubated for another 15 min. At the end of the second 15-min incubation, the membranes were pelleted and washed three times with TME to remove un-reacted PMSF.
(§1) The treated membranes Were subsequently used in the binding assay described below. Approximately 30 μg of PMSF-treated membranes were incubated in silanized 96-well microtiter plate with TME containing 0.1% essentially fatty acid-free bovine serum albumin (BSA), 0.8 nM [^3H] […] The samples were filtered using Packard Filtermate 196 and Whatman GF/C filterplates and washed with wash buffer (TME) containing 0.5% BSA. Radioactivity was detected using MicroScint 20 scintillation cocktail added directly to the dried filterplates, and the filterplates were counted using a Packard Instruments Top-Count. Nonspecific binding was assessed using 100 nM CP-55,940. Data collected from three independent experiments performed with duplicate determinations was normalized between 100% and 0% specific binding for [^3H] CP-55,940, determined using buffer and 100 nM CP-55,940. The normalized data was analyzed using a 4-parameter nonlinear logistic equation to yield IC50 values.
The CB1 ligand binding determinations in the absence of PMSF were performed in a similar manner to the above test, except without the use of PMSF.

Assay [2] has as its target T2, CB2 receptor (Mus musculus, UniProt P47936).
T2 construct: membranes were prepared from frozen mouse spleen; from tissue; host or cells: frozen mouse spleen membranes
Kind of assay: CB2 receptor binding assay ([3H]CP-55,940 displacement), without PMSF. The settings on record: mouse spleen membranes. Here is the method:
as §1
For the CB2 receptor binding studies, membranes were prepared from frozen mouse spleen essentially according to the procedure of P. R. Dodd et al, A Rapid Method for Preparing Synaptosomes: Comparison with Alternative Procedures, Brain Res., 226, 107–118 (1981). Silanized centrifuge tubes were used throughout to minimize receptor loss due to adsorption. The CB2 binding assay was conducted in the same manner as for the CB1 binding assay except the assays were conducted without PMSF. […] The binding affinities (Ki) are expressed in nanomoles (nM).

Where [3] appears, read: PMSF-treated, read-out: KI (CB1), with PMSF.
The mark [4] stands for this setting: without PMSF (anandamide amidase active), read-out: KI (CB1), without PMSF.

For orientation: pKi means the Ki on a negative log10 scale, so that one unit is a factor of ten.

T2 sequence (P47936 whole entry): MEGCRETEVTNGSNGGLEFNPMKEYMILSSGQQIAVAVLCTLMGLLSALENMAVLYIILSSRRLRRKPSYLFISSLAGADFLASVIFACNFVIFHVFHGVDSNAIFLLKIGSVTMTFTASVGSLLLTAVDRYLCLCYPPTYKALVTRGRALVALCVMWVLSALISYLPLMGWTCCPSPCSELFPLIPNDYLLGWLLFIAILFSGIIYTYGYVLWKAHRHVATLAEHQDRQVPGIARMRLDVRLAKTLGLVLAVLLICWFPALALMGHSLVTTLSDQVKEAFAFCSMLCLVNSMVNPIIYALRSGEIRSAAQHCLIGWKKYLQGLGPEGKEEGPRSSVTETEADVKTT
T1 sequence (P20272 whole entry): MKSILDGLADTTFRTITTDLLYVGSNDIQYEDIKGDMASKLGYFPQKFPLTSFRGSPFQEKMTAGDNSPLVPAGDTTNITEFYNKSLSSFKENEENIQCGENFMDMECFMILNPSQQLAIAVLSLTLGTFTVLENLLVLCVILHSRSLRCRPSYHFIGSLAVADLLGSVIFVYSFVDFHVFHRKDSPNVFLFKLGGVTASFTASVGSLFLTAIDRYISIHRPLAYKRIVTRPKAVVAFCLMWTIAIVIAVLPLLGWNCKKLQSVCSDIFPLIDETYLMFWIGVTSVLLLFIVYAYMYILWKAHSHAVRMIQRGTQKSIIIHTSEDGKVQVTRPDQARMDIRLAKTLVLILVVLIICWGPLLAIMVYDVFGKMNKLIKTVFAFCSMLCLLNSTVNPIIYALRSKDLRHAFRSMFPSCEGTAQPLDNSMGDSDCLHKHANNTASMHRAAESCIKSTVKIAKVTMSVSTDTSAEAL

Consider `CCCCC/C=C\C/C=C\C/C=C\C/C=C\CCCC(=O)N[C@H](C)CN=[N+]=[N-]` (racemic) [Analog 4, (R)-(+−)-Arachidonyl-1′-azido-2′-propylamide], for which the results for the pKi in assay [1] (setting [3]), in assay [1] (setting [4]) and in assay [2] were 7.90, 7.59 and 5.91, respectively.

In the case of `CCCCC/C=C\C/C=C\C/C=C\C/C=C\CCCC(=O)N[C@H](C)CF` [Analog 1, N-(2-Fluoro-1R-(methylethyl)arachidonylamide)], the negative-log Ki (pKi) is 8.93 in assay [1] (setting [3]), 8.00 in assay [1] (setting [4]) and 6.11 in assay [2].

Turning to `CCCCC/C=C\C/C=C\C/C=C\C/C=C\CCCC(=O)N[C@@H](C)CF` [Analog 2], the values for the negative logarithm of the Ki (pKi) in assay [1] (setting [3]), in assay [1] (setting [4]) and in assay [2] were 9.04, 7.25 and 5.87, respectively.

For the molecule `CCCCCC=CCC=CCC=CCC=CCCCC(=O)NCCCl` [Analog 5, N-(2-Chloroethyl)arachidonylamide], the results for the pKi in assay [1] (setting [3]), in assay [1] (setting [4]) and in assay [2] were 8.28, 5.47 and 6.71, respectively.

On to `CCCCCC=CCC=CCC=CCC=CCCCC(=O)NCCCCl` [Analog 6, N-(3-Chloropropyl)arachidonylamide], for which the negative-log Ki (pKi) in assay [1] (setting [3]) is 7.59; in assay [1] (setting [4]), 6.41; in assay [2] it was 6.71.

`C=CCNC(=O)CCC/C=C\C/C=C\C/C=C\C/C=C\CCCCC` [Analog 7, N-Allylarachidonylamide]: the pKi in assay [1] (setting [3]) is 8.00; in assay [1] (setting [4]) it was 5.53; in assay [2], 6.65.

Regarding `C#CCNC(=O)CCC/C=C\C/C=C\C/C=C\C/C=C\CCCCC` [Analog 8, N-Propargylarachidonylamide], the pKi was 7.97 in assay [1] (setting [3]), 5.31 in assay [1] (setting [4]) and 6.54 in assay [2].

As to `CCCCCC=CCC=CCC=CCC=CCCCC(=O)NCC(F)(F)F` [Analog 9, N-(2,2,2-Trifluroethyl) arachidonylamide], the figures for the pKi in assay [1] (setting [3]), in assay [1] (setting [4]) and in assay [2] were 7.44, 5.62 and 6.14, respectively.

Consider `CCCCC/C=C\C/C=C\C/C=C\C/C=C\CCCCNC(=O)CCO` [Analog 10, N-(3-Hydroxypropionyl)arachidonylamine], for which the pKi in assay [1] (setting [3]) is 6.94; in assay [1] (setting [4]), 6.87; in assay [2], 5.45.

Turning to `CCCCC/C=C\C/C=C\C/C=C\C/C=C\CCCCNC(=O)COC(C)=O` [Analog 11, N-(2-Acetoxyacetyl)arachidonylamine], the pKi in assay [1] (setting [3]) and in assay [1] (setting [4]) was 6.38 each time.

In the case of `CCCCC/C=C\C/C=C\C/C=C\C/C=C\CCCCNC(=O)CO` [Analog 12], the negative logarithm of the Ki (pKi) in assay [1] (setting [3]) is 7.70; in assay [1] (setting [4]), 7.64.
